Data: ChEMBL document CHEMBL1201862, “PubChem BioAssay data set” (2004)
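Each compound was tested at five concentrations against cells in 96-well plates for 48 hours. Abbreviation: GI50, concentration required for 50% inhibition of growth.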 Active and inactive are the calls of the source. No stated cut-off is given here; in the data, active = GI50 up to about 1.1 µM and inactive = higher.

Assays:
Assay in all cases: NCI-60 cell line screen, 48 h
SF-539 = system: SF-539
SK-MEL-5 = system: SK-MEL-5
SF-295 = system: SF-295
K562 = system: K562
UACC-257 = system: UACC-257
KM-20L2 = system: KM-20L2
786-0 = system: 786-0
NCI-H522 = system: NCI-H522
SK-MEL-28 = system: SK-MEL-28
UACC-62 = system: UACC-62
SNB-75 = system: SNB-75
SW-620 = system: SW-620
NCI-H226 = system: NCI-H226
DMS-114 = system: DMS-114
OVCAR-4 = system: OVCAR-4
EKVX = system: EKVX
LOX IMVI = system: LOX IMVI
UO-31 = system: UO-31
HT-29 = system: HT-29
SK-MEL-2 = system: SK-MEL-2
SNB-78 = system: SNB-78
RXF 631 = system: RXF 631
Malme-3M = system: Malme-3M
OVCAR-3 = system: OVCAR-3
ACHN = system: ACHN
OVCAR-8 = system: OVCAR-8
TK-10 = system: TK-10
HL-60 = system: HL-60
HOP-62 = system: HOP-62
CAKI-1 = system: CAKI-1
KM12 = system: KM12
RXF 393 = system: RXF 393
A549 = system: A549
M14 = system: M14
COLO 205 = system: COLO 205
NCI-H23 = system: NCI-H23
SR = system: SR
HCT-116 = system: HCT-116
SN12C = system: SN12C
M19-MEL = system: M19-MEL
HOP-18 = system: HOP-18
HCC 2998 = system: HCC 2998
IGROV-1 = system: IGROV-1
SNB-19 = system: SNB-19
U-251 = system: U-251
HOP-92 = system: HOP-92
SF-268 = system: SF-268
CCRF-CEM = system: CCRF-CEM
SK-OV-3 = system: SK-OV-3
MOLT-4 = system: MOLT-4
OVCAR-5 = system: OVCAR-5
LXFL 529 = system: LXFL 529
DMS-273 = system: DMS-273
XF498 = system: XF498
A498 = system: A498
DLD-1 = system: DLD-1

Measured: GI50

[O-][S+]1CSSC1
inactive: SF-539 19.7 µM | SK-MEL-5 > 10 µM | SF-295 20.7 µM | K562 3.07 µM | UACC-257 14.8 µM | KM-20L2 22.8 µM | 786-0 20.7 µM | NCI-H522 11.4 µM | SK-MEL-28 27.4 µM | UACC-62 10.4 µM | SNB-75 27.7 µM | SW-620 15 µM | NCI-H226 26.3 µM | DMS-114 4.98 µM | OVCAR-4 16.7 µM | EKVX 31.3 µM | LOX IMVI 2.2 µM | UO-31 18.7 µM | HT-29 7.64 µM | SK-MEL-2 15.6 µM | SNB-78 20.3 µM | RXF 631 12.3 µM | Malme-3M 36.7 µM | OVCAR-3 17.9 µM | ACHN 25.1 µM | OVCAR-8 19.6 µM | TK-10 23.7 µM | HL-60 2.56 µM | HOP-62 36.3 µM | CAKI-1 28.1 µM | KM12 13.9 µM | RXF 393 19.9 µM | A549 33.9 µM | M14 22.5 µM | COLO 205 17.1 µM | NCI-H23 28.7 µM | SR 9.79 µM | HCT-116 16.2 µM | SN12C 12 µM | M19-MEL 2.05 µM | HOP-18 51.4 µM | HCC 2998 23.2 µM | IGROV-1 22 µM | SNB-19 41.6 µM | U-251 18.7 µM | HOP-92 26.1 µM | SF-268 26.2 µM | CCRF-CEM 4.42 µM | SK-OV-3 24.3 µM | MOLT-4 5.36 µM | OVCAR-5 16.8 µM | LXFL 529 13.5 µM | DMS-273 10.9 µM | XF498 15.7 µM | A498 43.8 µM | DLD-1 18.7 µM
